From US8680059B2, “Oligopeptide acetate and formulations thereof” (Biotempt B.V., priority 1998, dated 2014)
Where “and” joins values, the source holds several entries; their conditions need not be identical. Identical values can stand only once.

How the values were obtained:
[1] = system: RAW 264.7 murine macrophage cell line; test: Nitrite (NO) production in LPS-stimulated RAW 264.7 macrophages; type: cell-based; conditions: co-stimulated with LPS 10 microg/ml, peptide even at 1 pg/ml, 24 hours
Description: Cell culture. The RAW 264.7 murine macrophage cell line, obtained from American Type Culture Collection (Manassas, Va., USA), were cultured at 37° C. in 5% CO2 using DMEM containing 10% fetal calf serum (FCS), 50 U/ml penicillin, 50 μg/ml streptomycin, […] Na-pyruvate, 2 mM glutamine and 50 μM 2-mercaptoethanol (Bio Whittaker, Europe). The medium was changed every 2 days.
Nitrite measurements. Nitrite production was measured in the RAW 264.7 macrophage supernatants. The cells (7.5×10^5/ml) were cultured in 48-well plates in […] of culture medium. The cells were stimulated with LPS (10 microg/ml) and/or peptide (1 pg/ml, 1 ng/ml, 1 μg/ml) for 24 hours, then the culture media were collected. Nitrite was measured by adding 100 microl of Griess reagent (Sigma) to 100 microl samples of culture medium. The OD540 was measured using a microplate reader, and the nitrite concentration was calculated by comparison with the OD540 produced using standard solutions of sodium nitrite in the culture medium.

[2] = system: BALB/c mice injected i.p. with LPS (E. coli 026:B6); test: LPS-induced septic shock (endotoxin model) in BALB/c mice; type: in vivo, mouse
Description: Mice used in sepsis or septic shock experiments: Female BALB/c mice of 8-12 weeks of age were used for all experiments. The animals were bred in our facility under specific pathogen-free conditions according to the protocols described in the Report of European Laboratory Animal Science Associations (FELASA) Working group on Animal Health (Laboratory Animals 28: 1-24, 1994).
Injection protocols: For the endotoxin model, BALB/c mice were injected i.p. with 150-300 μg LPS (E. coli 026:B6; Difco Lab., Detroit, Mich., USA). Control groups were treated with PBS i.p. only. To test the effect of peptides, they were dissolved in PBS and injected i.p. at predetermined points in time after LPS treatment.
Mice were scored for sickness severity using the following measurement scheme: • 0 No abnormalities. • 1 Percolated fur, but no detectable behavior differences compared to normal mice. • 2 Percolated fur, huddle reflex, responds to stimuli (such as tap on cage), just as active during handling as healthy mouse. • 3 Slower response to tap on cage, passive or docile when handled, but still curious when alone in a new setting. • 4 Lack of curiosity, little or no response to stimuli, quite immobile. • 5 Labored breathing, inability or slow to self-right after being rolled onto back (moribund, sacrificed). • D Dead […]
A comparative trial was set up to compare peptide MTR and SEQ ID NO:2. The comparative trial comprised 6 groups of 6 animals; two groups (1A and 1B) receiving placebo (PBS), one group (2) peptide MTR (source Pepscan, Lelystad, NL), one group (3) receiving peptide MTR (source Ansynth), one group (4) receiving peptide SEQ ID NO:2 (source Pepscan) and one group peptide SEQ ID NO:2 (source Ansynth). Peptide/placebo in these groups was administered 2 hours after LPS. LPS (source) was used at 10-11 mg/kg. Sickness scores were done at 0, 2, 22 26 42 and 48 hours after LPS injection.

[3] = system: mice, 25 minutes renal ischemia/reperfusion; test: Mouse renal ischemia reperfusion test (mortality, BUN/serum urea); type: in vivo; design: BUN, mean / Urea level: unit not given here; conditions: 5 mg/kg i.v.
Description: SEQ ID NO:2 was tested and compared with PBS (control) in a double blind animal study for the peptide's relative ability to aid recovery in a mouse renal ischemia reperfusion test. In this test, the mice were anesthetized, and one kidney from each mouse was removed. The other kidney was tied off for 25 minutes, and the serum urea levels were allowed to increase. Both before and after tying off, the peptide was administered to thirty (30) different mice (5 mg oligopeptide/kg body mass intravenously), after which, the mortality of the mice was determined for each oligopeptide as well as was the BUN concentration at two hours, 24 hours and 72 hours.
Under inhalation anesthesia, the left kidney with its artery and vein was isolated and occluded for 25 minutes using a microvascular clamp. During surgery animals were placed on a heating path to maintain body temperature at 37° C. Five minutes before placing the clamp, and 5 minutes before releasing the clamp, 5 mg/kg of peptide, dissolved in 0.1 mL of sterile saline, was administered intravenously. After reperfusion of the left kidney the right kidney was removed. Kidney function was assessed by measuring blood urea nitrogen before clamping, and at 2, 24, and 72 hours after reperfusion.
To determine dose-response relationships SEQ ID NO:2, was tested in a dose-response manner in the mice test as described above. Peptides were tested at 0.3, 1, 3, 10 and 30 mg/kg dosages given as described in Example I. Serum urea levels are presented in Table 3.

[4] = system: mice, high dose LPS septic shock; conditions: single treatment after high dose LPS injection; cited from earlier work
[5] = peptide twice (t = 2 hr and 24 hr) 5 mg/kg, LPS dose 11, t = 24 hr
[6] = peptide twice (t = 2 hr and 24 hr) 5 mg/kg, LPS dose 11, t = 48 hr
[7] = single dose 5 mg/kg, LPS dose 7*, t = 24 hr
[8] = single dose 5 mg/kg, LPS dose 8, t = 24 hr
[9] = single dose 5 mg/kg, LPS dose 8, t = 48 hr
[10] = single dose 5 mg/kg, LPS dose 10, t = 24 hr
[11] = single dose 5 mg/kg, LPS dose 10, t = 48 hr

## LQGV [tetrapeptide from loop 2 of the beta-subunit of hCG]
[1]
  NO production: inhibited the production of NO
[2]; 5 mg/kg i.p. after varying doses of LPS (Table 6)
  effect against LPS-induced sepsis: marked protective effect
[2]; peptide twice (t = 2 hr and 24 hr) 5 mg/kg, LPS dose 10.5, t = 24 hr
  number of mice with sickness score 5: 5
[2]; peptide twice (t = 2 hr and 24 hr) 5 mg/kg, LPS dose 10.5, t = 48 hr
  number of mice with score D (dead): 5
[2]; [5]
  number of mice with sickness score 4: 2
  number of mice with sickness score 5: 4
[2]; [6]
  number of mice with score D (dead): 4
  number of mice with sickness score 4: 2
[2]; single dose 5 mg/kg, LPS dose 7**, t = 24 hr
  number of mice with sickness score 1: 6
[2]; single dose 5 mg/kg, LPS dose 7**, t = 48 hr
  number of mice with sickness score 1: 6
[2]; [7]
  number of mice with sickness score 1: 2
  number of mice with sickness score 2: 4
[2]; single dose 5 mg/kg, LPS dose 7*, t = 48 hr
  number of mice with sickness score 1: 6
[2]; [8]
  number of mice with sickness score 1: 3
  number of mice with sickness score 3: 1
[2]; single dose 5 mg/kg, LPS dose 8, t = 24 hr, 5 mg/kg
  number of mice with sickness score 2: 5 and 3
[2]; [9]
  number of mice with sickness score 0: 4
  number of mice with sickness score 2: 1
[2]; [10]
  number of mice with sickness score 1: 2
  number of mice with sickness score 3: 1
  number of mice with sickness score 4: 1
[2]; [11]
  number of mice with score D (dead): 1
  number of mice with sickness score 2: 1
[2]; single dose 5 mg/kg, LPS dose 10, t = 48 hr, 5 mg/kg
  number of mice with sickness score 1: 6 and 4
[2]; single injection 5 mg/kg 2 hours after LPS (300 μg), time 0 hours
  % survival: 100%
[2]; single injection 5 mg/kg 2 hours after LPS, time 14 hours
  % survival: 100%
[2]; single injection 5 mg/kg 2 hours after LPS, time 24 hours
  % survival: 100%
[2]; single injection 5 mg/kg 2 hours after LPS, time 48 hours
  % survival: 100%
[2]; single injection 5 mg/kg 2 hours after LPS, time 84 hours
  % survival: 100%
[2]; single injection 5 mg/kg 24 hours after LPS (300 μg), time 0 hours
  % survival: 100%
[2]; single injection 5 mg/kg 24 hours after LPS, time 14 hours
  % survival: 100%
[2]; single injection 5 mg/kg 24 hours after LPS, time 24 hours
  % survival: 100%
[2]; single injection 5 mg/kg 24 hours after LPS, time 48 hours
  % survival: 0%
[2]; single injection 5 mg/kg 24 hours after LPS, time 84 hours
  % survival: 0%
[3]; 2 hr after reperfusion
  BUN, mean: 17.53
[3]; 24 hr after reperfusion
  BUN, mean: 56.08
[3]; 72 hr after reperfusion
  BUN, mean: 73.18
[3]; t = 0 hr (before clamping)
  BUN, mean: 7.518

## VLPALP [6-mer oligopeptide derived from the beta-chain of human chorionic gonadotropin hormone (Khan et al. 2002)]
[4]
  septic shock in mice: inhibited septic shock in mice
